The source of these data is article PMC6832239, “The Effects of a Novel Series of KTTKS Analogues on Cytotoxicity and Proteolytic Activity” (Molecules, 2019).

One series deals with tryptase. Further details: method as in PMID 27434836. The note with it: selectivity; cited from earlier work.
In another series the target is T1, urokinase (Homo sapiens, UniProt P00749).
T1 construct: purchased Sigma (Schnelldorf, Germany)
Further details: method as in PMID 27434836. The note with it: competitive and reversible inhibitor; cited from earlier work.

Another series has as its system neutrophil elastase. Details: method as in PMID 27434836. To be noted: selectivity; cited from earlier work.
A further series deals with kallikrein 7. Details: method as in PMID 27434836. The note with it: selectivity; cited from earlier work.
The target of a further series is T2, plasmin (Homo sapiens, UniProt P00747).
T2 construct: purchased Chromogenix (Milano, Italy)
T2 sequence (P00747 581-810 limits assumed): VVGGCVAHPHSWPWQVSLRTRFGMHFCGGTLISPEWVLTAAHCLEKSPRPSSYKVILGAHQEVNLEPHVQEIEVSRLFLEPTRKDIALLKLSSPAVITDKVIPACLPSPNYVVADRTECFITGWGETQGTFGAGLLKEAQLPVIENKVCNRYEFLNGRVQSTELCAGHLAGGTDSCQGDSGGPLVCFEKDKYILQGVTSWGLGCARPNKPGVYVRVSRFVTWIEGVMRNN
T2 sequence (P00747 97-580 partner limits assumed): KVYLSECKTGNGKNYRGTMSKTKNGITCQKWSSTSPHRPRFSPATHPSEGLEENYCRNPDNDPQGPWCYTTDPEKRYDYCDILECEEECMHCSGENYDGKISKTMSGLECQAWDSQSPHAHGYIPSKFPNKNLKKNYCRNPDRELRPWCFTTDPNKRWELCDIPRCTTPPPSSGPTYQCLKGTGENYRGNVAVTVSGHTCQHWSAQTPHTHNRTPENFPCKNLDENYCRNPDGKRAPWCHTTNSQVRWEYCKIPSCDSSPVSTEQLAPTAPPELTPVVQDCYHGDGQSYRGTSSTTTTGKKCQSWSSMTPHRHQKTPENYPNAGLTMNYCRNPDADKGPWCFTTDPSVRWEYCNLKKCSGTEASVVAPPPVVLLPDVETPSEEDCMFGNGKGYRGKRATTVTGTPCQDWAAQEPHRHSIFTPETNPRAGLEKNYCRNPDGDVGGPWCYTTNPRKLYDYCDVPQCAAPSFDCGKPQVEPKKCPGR
Details: method as in PMID 27434836. To be noted: competitive and reversible inhibitor; cited from earlier work.

The test system of another series is kallikrein 5. Further details: method as in PMID 27434836. The note with it: selectivity; cited from earlier work.
The next series has as its system human dermal fibroblasts. Further details: method as in PMID 23320752. The note with it: cited from earlier work.
The next series concerns face wrinkles. Further details: method as in PMID 19570099. To be noted: oil-in-water cream twice daily for 8 and 12 weeks; cited from earlier work.
Details of series [1]: method as in PMID 25143811. The note with it: stratum corneum, epidermis, dermis; cited from earlier work.
Series [2] deals with primary dermal fibroblasts cells. Briefly: Viability of fibroblast cells, MTT assay. It counts as cell-based, Human. To be noted: MTT, 1-100 μM, 24 h. A digest of the protocol:
(§1)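 Primary dermal fibroblasts near 80% confluence were exposed for 24 h to peptides at 1, 10 or 100 μM, with matched DMSO controls. Then 4 h MTT (5 mg/mL), lysis in DMSO/Sorensen's buffer, absorbance at 570 nm; mean ± SD of three experiments in duplicate.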
Background: Tetrazolium assays rely on reduction of a dye to a coloured formazan, in cell work by metabolically active cells.

The nature of series [3]: Viability of fibroblast cells, MTT assay. It counts as cell-based, Human. To be noted: human, primary dermal fibroblast cells, 24 h, MTT, ± 2, read-out: Viability of fibroblast cells. The procedure, abridged:
as §1

For a further series, the system named is collagen synthesis. Further details: method as in PMID 19268583. The note with it: cited from earlier work.

The structures appear in SMILES notation. Residues, ends and D or L forms follow the SMILES beside them.

What is called Ki is the dissociation constant of the complex between target and ligand, obtained from inhibition or displacement. For the molecule `N=C(N)c1ccc(CNC(=O)C(CCc2ccccc2)NC(=O)[C@@H](CO)NS(=O)(=O)Cc2ccccc2)cc1` (stereo partly drawn) [BSFAB, benzylsulfonyl-D-Ser-homoPhe-(4-amidinobenzylamide)], in the series on tryptase, the inhibition of tryptase result is given as “did not inhibit”. The figures for the inhibition constant (Ki) on urokinase and on plasmin were 25 nM and 29 nM, respectively. In the series on neutrophil elastase, the “inhibition of neutrophil elastase” value is “did not inhibit”. Besides, the “inhibition of kallikrein 7” value in the series with kallikrein 7 is “did not inhibit”. The “inhibition of kallikrein 5” value in the series on kallikrein 5 is on record as “did not inhibit”.
One may read the viability as a per cent measure of how many cells are alive, often set against a control. On to `CCCCCCCCCCCCCCCC(=O)N[C@@H](CCCCN)C(=O)N[C@H](C(=O)N[C@H](C(=O)N[C@@H](CCCCN)C(=O)N[C@@H](CO)C(=O)O)[C@@H](C)O)[C@@H](C)O` [Peptide 4, Pal-Lys-Thr-Thr-Lys-Ser-OH, reference compound] (HELM PEPTIDE1{[CCCCCCCCCCCCCCCC(=O)[*:2]].K.T.T.K.S}$$$$V2.0), for which the collagen production entry in the series on human dermal fibroblasts is given as “stimulates collagen production in a concentration-dependent manner”. The “length of wrinkles, age spots, skin texture versus placebo cream” value with face wrinkles is on record as “markedly improved”. The “retention in skin layers” value in [1] is reported as “retained in different skin layers”. For the same molecule, the “cytotoxicity / cell growth effect on fibroblasts” value in series [2] is given as “did not exhibit fibroblast growth”. In series [3] (1 µmol/L), the viability at 24 h, 1 µmol/L worked out at 97%. Moreover, in [3] (10 µmol/L), the viability at 24 h, 10 µmol/L was 91%. In addition, in [3] (100 µmol/L), the viability at 24 h, 100 µmol/L came out at 85%. Further, in the series on collagen synthesis, the “increase of collagen synthesis” value was “over 150%”.
